Measured values as given in ChEMBL document CHEMBL1909046, “DrugMatrix in vitro pharmacology data”.

Legend:
[1] = DRUGMATRIX: Sigma2 radioligand binding (ligand: [3H] Ifenprodil); assay type: cell membranes, Rattus norvegicus, Wistar, Brain, Membrane; conditions: Not Active = under 50% inhibition at 10 µM
[2] = target: T1, Amine oxidase [flavin-containing] A (Homo sapiens, UniProt P21397); assay: DRUGMATRIX: Monoamine Oxidase MAO-A enzyme inhibition (substrate: Kynuramine); design: species or system BTI-TN-5B1-4; conditions: bti-tn-5b1-4; Not Active = under 50% inhibition at 10 µM
T1 sequence (P21397 whole entry): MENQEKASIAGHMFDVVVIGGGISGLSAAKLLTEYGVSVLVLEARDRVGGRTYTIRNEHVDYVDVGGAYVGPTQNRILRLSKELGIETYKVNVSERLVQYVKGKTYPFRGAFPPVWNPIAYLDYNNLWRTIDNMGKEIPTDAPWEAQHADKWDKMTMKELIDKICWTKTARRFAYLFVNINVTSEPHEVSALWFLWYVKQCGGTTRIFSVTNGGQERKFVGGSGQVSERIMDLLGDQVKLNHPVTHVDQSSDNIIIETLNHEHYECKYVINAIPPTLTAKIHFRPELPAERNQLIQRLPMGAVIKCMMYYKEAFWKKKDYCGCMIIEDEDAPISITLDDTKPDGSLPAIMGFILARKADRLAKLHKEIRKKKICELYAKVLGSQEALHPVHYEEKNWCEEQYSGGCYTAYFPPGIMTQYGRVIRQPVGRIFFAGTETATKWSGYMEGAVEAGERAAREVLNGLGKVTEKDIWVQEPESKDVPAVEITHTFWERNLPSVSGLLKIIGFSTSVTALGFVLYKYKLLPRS

[3] = DRUGMATRIX: Phosphodiesterase PDE4 enzyme inhibition (substrate: [3H]cAMP + cAMP); conditions: u-937; Not Active = under 50% inhibition at 10 µM
[4] = target: T2, Receptor-type tyrosine-protein phosphatase C (Homo sapiens, UniProt P08575); design: species or system Escherichia coli;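 also: inhibition of CD45 enzyme activity measured using DiFMUP as substrate; in other assays of this panel Not Active means under 50% inhibition at 10 µM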
T2 sequence (P08575 whole entry): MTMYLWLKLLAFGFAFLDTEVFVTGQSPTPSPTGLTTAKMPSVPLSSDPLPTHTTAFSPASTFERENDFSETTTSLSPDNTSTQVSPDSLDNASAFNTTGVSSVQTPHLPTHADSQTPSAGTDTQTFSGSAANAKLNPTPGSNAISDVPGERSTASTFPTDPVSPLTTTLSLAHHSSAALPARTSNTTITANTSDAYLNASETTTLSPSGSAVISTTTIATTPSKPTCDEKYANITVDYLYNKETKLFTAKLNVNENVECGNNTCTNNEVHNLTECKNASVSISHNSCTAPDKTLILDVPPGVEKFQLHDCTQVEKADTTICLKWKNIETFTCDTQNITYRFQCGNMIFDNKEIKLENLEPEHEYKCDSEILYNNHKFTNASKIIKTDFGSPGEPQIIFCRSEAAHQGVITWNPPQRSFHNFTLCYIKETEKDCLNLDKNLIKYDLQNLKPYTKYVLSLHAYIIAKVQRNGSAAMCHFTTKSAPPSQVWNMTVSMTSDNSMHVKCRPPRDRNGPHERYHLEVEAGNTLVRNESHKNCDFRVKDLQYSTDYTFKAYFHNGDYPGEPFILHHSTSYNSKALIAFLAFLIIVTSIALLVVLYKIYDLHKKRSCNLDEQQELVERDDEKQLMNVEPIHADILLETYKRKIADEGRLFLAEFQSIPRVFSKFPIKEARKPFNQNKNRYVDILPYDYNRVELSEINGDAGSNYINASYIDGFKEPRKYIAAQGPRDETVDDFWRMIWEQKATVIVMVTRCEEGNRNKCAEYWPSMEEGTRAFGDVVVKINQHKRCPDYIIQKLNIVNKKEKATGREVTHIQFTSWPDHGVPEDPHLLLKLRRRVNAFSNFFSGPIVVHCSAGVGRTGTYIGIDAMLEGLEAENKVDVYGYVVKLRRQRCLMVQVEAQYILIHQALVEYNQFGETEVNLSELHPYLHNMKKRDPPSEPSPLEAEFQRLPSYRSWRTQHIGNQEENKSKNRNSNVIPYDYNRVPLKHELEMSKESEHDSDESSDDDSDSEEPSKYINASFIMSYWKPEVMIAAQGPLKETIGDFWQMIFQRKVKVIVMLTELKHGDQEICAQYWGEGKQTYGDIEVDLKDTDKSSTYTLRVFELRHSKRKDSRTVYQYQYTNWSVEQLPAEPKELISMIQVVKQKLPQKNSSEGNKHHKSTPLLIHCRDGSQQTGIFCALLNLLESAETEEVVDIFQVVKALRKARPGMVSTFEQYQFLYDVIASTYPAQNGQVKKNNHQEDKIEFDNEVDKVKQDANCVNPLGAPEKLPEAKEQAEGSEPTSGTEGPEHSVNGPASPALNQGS

[5] = target: T3, 5-hydroxytryptamine receptor 1A (Rattus norvegicus, UniProt P19327); assay type: cell membranes, Membrane; conditions: cho-k1; also: in other assays of this panel Not Active means under 50% inhibition at 10 µM
T3 sequence (P19327 whole entry): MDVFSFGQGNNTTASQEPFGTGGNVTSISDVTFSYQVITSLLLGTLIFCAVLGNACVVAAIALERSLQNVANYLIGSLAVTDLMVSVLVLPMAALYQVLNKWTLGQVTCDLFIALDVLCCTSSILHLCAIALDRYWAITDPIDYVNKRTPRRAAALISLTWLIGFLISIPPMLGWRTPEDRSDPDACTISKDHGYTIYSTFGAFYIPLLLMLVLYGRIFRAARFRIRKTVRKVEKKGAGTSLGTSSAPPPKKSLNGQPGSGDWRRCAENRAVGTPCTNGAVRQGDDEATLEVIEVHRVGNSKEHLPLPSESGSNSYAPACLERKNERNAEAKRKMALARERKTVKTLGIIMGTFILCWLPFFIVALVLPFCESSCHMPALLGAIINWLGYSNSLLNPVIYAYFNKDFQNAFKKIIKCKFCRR

[6] = target: 5-hydroxytryptamine receptor 1B (Rattus norvegicus, UniProt P28564); assay type: cell membranes, Wistar, Cerebral cortex, Membrane; also: in other assays of this panel Not Active means under 50% inhibition at 10 µM
5-hydroxytryptamine receptor 1B, sequence (P28564 whole entry): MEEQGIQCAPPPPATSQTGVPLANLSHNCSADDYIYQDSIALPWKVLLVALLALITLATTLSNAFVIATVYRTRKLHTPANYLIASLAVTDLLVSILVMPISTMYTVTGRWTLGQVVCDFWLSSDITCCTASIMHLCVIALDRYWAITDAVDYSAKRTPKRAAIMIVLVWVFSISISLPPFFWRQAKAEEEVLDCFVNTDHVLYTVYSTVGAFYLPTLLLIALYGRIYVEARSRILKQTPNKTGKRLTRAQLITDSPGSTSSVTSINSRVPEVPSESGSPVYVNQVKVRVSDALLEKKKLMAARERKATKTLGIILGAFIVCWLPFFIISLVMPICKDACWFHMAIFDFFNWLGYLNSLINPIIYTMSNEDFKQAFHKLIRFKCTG

C/C=C/C[C@@H](C)[C@@H](O)[C@H]1C(=O)N[C@@H](CC)C(=O)N(C)CC(=O)N(C)[C@@H](CC(C)C)C(=O)N[C@@H](C(C)C)C(=O)N(C)[C@@H](CC(C)C)C(=O)N[C@@H](C)C(=O)N[C@H](C)C(=O)N(C)[C@@H](CC(C)C)C(=O)N(C)[C@@H](CC(C)C)C(=O)N(C)[C@@H](C(C)C)C(=O)N1C [CYCLOSPORINE]
Not Active: IC50 [1] | Ki [1] | IC50 [2] | IC50 [3] | Ki [3] | IC50 [4] | IC50 [5] | IC50 [6]

CCOC(=O)C(C)(C)Oc1ccc(Cl)cc1 [CLOFIBRATE]
Not Active: IC50 [1] | Ki [1] | IC50 [2] | IC50 [3] | Ki [3] | IC50 [4] | IC50 [5] | IC50 [6]

C#C[C@]1(OC(C)=O)CC[C@H]2[C@@H]3CCC4=CC(=O)CC[C@@H]4[C@H]3CC[C@@]21C [NORETHINDRONE ACETATE]
Not Active: IC50 [1] | Ki [1] | IC50 [2] | IC50 [3] | Ki [3] | IC50 [4] | IC50 [5] | IC50 [6]

COC(=O)C1=C(C)NC(C)=C(C(=O)OCC(C)C)C1c1ccccc1[N+](=O)[O-] (stereo not given) [NISOLDIPINE]
Not Active: IC50 [1] | Ki [1] | IC50 [2] | IC50 [3] | Ki [3] | IC50 [4] | IC50 [5] | IC50 [6]

CC(=O)Nc1c(I)c(NC(C)=O)c(I)c(C(=O)O)c1I [DIATRIZOIC ACID]
Not Active: IC50 [1] | Ki [1] | IC50 [2] | IC50 [3] | Ki [3] | IC50 [4] | IC50 [5] | IC50 [6]

C[C@@H]1C[C@@H]([C@H](O)CC2CC(=O)NC(=O)C2)C(=O)[C@@H](C)C1 [CYCLOHEXIMIDE]
Not Active: IC50 [1] | Ki [1] | IC50 [2] | IC50 [3] | Ki [3] | IC50 [4] | IC50 [5] | IC50 [6]

Cc1cc(=O)n(-c2ccccc2)n1C [ANTIPYRINE]
Not Active: IC50 [1] | Ki [1] | IC50 [2] | IC50 [3] | Ki [3] | IC50 [4] | IC50 [5] | IC50 [6]

CC1(C)O[C@@H]2C[C@H]3[C@@H]4C[C@H](F)C5=CC(=O)CC[C@]5(C)[C@H]4[C@@H](O)C[C@]3(C)[C@]2(C(=O)CO)O1 [FLURANDRENOLIDE]
Not Active: IC50 [1] | Ki [1] | IC50 [2] | IC50 [3] | Ki [3] | IC50 [4] | IC50 [5] | IC50 [6]

CC(=O)OCC(=O)[C@@]1(O)CC[C@H]2[C@@H]3CCC4=CC(=O)CC[C@]4(C)[C@H]3C(=O)C[C@@]21C [CORTISONE ACETATE]
Not Active: IC50 [1] | Ki [1] | IC50 [2] | IC50 [3] | Ki [3] | IC50 [4] | IC50 [5] | IC50 [6]

CCN1CC(CCN2CCOCC2)C(c2ccccc2)(c2ccccc2)C1=O (stereo not given) [DOXAPRAM]
Not Active: IC50 [1] | Ki [1] | IC50 [2] | IC50 [3] | Ki [3] | IC50 [4] | IC50 [5] | IC50 [6]
